In brackets after ≈: the same amount, converted by molar mass. Read-outs that look alike come from different tables or passages of the source.
Columns and labels:
[1] = test system: M. tuberculosis transformed with luxABCDE; experiment: microbe, parasite or virus in culture; assay type: cell-based, Mycobacterium tuberculosis
[2] = test system: non-replicating cultures of M. tuberculosis H37Rv transformed with lux ABCDE; experiment: microbe, parasite or virus in culture; assay type: cell-based, Mycobacterium tuberculosis; settings: for MIC90 LORA/MABA: ratio of LORA MIC90 to MABA MIC90
[3] = Mycobacterium tuberculosis, 168 h, […], ≥99% reduction in luminescence, read-out: MBC99 Day 7 (Lux Assay) MBC
[4] = Mycobacterium tuberculosis, H37RV, […], ≥90% reduction in luminescence, read-out: MIC90 LORA

| Structure (SMILES) | MBC99 Day 7 (Lux Assay) MBC Rel to RMP [1] | MBC [1, 3] | MIC90 LORA Rel to RMP [2] | MIC90 [2, 4] | MIC90 LORA/MABA [2] | MIC90 ([1]; Mycobacterium tuberculosis, 168 h, day 7 of time-kill study) | MBC ([1]; Mycobacterium tuberculosis, 168 h, day 7 of time-kill study, read-out: MBC99) | MIC90 LORA Rel to RMP ([2]; LORA MIC90 relative to rifampin (RMP = 1)) | MIC [2, 4] |
| --- | --- | --- | --- | --- | --- | --- | --- | --- | --- |
| CO[C@H]1/C=C/O[C@@]2(C)Oc3c(C)c(O)c4c(=O)c(c5oc6cc(N7CCN(CC(C)C)CC7)cc(O)c6nc-5c4c3C2=O)NC(=O)/C(C)=C\C=C\[C@H](C)[C@H](O)[C@@H](C)[C@@H](O)[C@@H](C)[C@H](OC(C)=O)[C@@H]1C [RLZ, rifalazil, reference compound] | 0.07 | 0.03 µM (≈ 0.0282 µg/mL) | 0.01 | 0.0022 µM (≈ 0.00207 µg/mL) | 2.0 |  |  |  |  |
| COC(=O)N1CCN(c2cc(C)c3nc4c5c6c7c(C)c(O)c5c(=O)c(c-4oc3c2)NC(=O)/C(C)=C\C=C\[C@H](C)[C@H](O)[C@@H](C)[C@@H](O)[C@@H](C)[C@H](OC(C)=O)[C@H](C)[C@@H](OC)/C=C/O[C@@](C)(O7)C6=O)CC1 [Compound 26g, Methyl 4-[(7S,9E,11S,12R,13S,14R,15R,16R,17S,18S,19E,21Z)-13-(acetyloxy)-2,15,17-trihydroxy-11-methoxy-3,7,12,14,16,18,22,32-octamethyl-6,23,37-trioxo-8,27,38-trioxa-24,34-diazahexacyclo[23.11.1.1^4,7.0^5,36.0^26,35.0^28,33]octatriaconta-1(36)2,4,9,19,21,25,28,30,32,34-undecaen-30-yl]piperazine-1-carboxylate] | 0.09 | 0.043 µM (≈ 0.0405 µg/mL) | 0.05 | 0.0096 µM (≈ 0.00903 µg/mL) | 1.9 |  |  |  |  |
| CCC(=O)N1CCN(c2cc(C)c3nc4c5c6c7c(C)c(O)c5c(=O)c(c-4oc3c2)NC(=O)/C(C)=C\C=C\[C@H](C)[C@H](O)[C@@H](C)[C@@H](O)[C@@H](C)[C@H](OC(C)=O)[C@H](C)[C@@H](OC)/C=C/O[C@@](C)(O7)C6=O)CC1 [Compound 26e, (7S,9E,11S,12R,13S,14R,15R,16R,17S,18S,19E,21Z)-2,15,17-Trihydroxy-11-methoxy-3,7,12,14,16,18,22,32-octamethyl-6,23,37-trioxo-30-(4-propanoylpiperazin-1-yl)-8,27,38-trioxa-24,34-diazahexacyclo[23.11.1.1^4,7.0^5,36.0^26,35.0^28,33]octatriaconta-1(36)2,4,9,19,21,25,28,30,32,34-undecaen-13-yl acetate] | 0.19 | 0.087 µM |  | > 0.02 µM |  |  |  |  |  |
| CO[C@H]1/C=C/O[C@@]2(C)Oc3c(C)c(O)c4c(=O)c(c5oc6cc(N7CCN(C(=O)c8ccc9occc9c8)CC7)cc(OCc7ccc(CN8CCOCC8)cc7)c6nc-5c4c3C2=O)NC(=O)/C(C)=C\C=C\[C@H](C)[C@H](O)[C@@H](C)[C@@H](O)[C@@H](C)[C@H](OC(C)=O)[C@@H]1C [Compound 17s, (7S,9E,11S,12R,13S,14R,15R,16R,17S,18S,19E,21Z)-30-{4-[(1-benzofuran-5-yl)carbonyl]piperazin-1-yl}-2,15,17-trihydroxy-11-methoxy-3,7,12,14,16,18,22-heptamethyl-32-{[4-(morpholin-4-ylmethyl)phenyl]methoxy}-6,23,37-trioxo-8,27,38-trioxa-24,34-diazahexacyclo[23.11.1.1^4,7.0^5,36.0^26,35.0^28,33]octatriaconta-1,3,5(36)9,19,21,25,28,30,32,34-undecaen-13-yl acetate] | 0.19 | 0.084 µM | 0.60 | 0.03 µM | 1.7 |  |  |  |  |
| CO[C@H]1/C=C/O[C@@]2(C)Oc3c(C)c(O)c4c(O)c(c(/C=N/N5CCN(C)CC5)c(O)c4c3C2=O)NC(=O)/C(C)=C\C=C\[C@H](C)[C@H](O)[C@@H](C)[C@@H](O)[C@@H](C)[C@H](OC(C)=O)[C@@H]1C [RMP, rifampin, reference compound] | 1 | 0.463 µM (≈ 0.381 µg/mL) |  | 0.206 µM (≈ 0.17 µg/mL) | 7.6 | 0.03 µM (≈ 0.0247 µg/mL) | 0.463 µM (≈ 0.381 µg/mL) | 1 |  |
| CCC(=O)N1CCN(Cc2cccc(COc3cccc4oc5c6c(=O)c7c(O)c(C)c8c(c7c-5nc34)C(=O)[C@@](C)(O/C=C/[C@H](OC)[C@@H](C)[C@@H](OC(C)=O)[C@H](C)[C@H](O)[C@H](C)[C@@H](O)[C@@H](C)/C=C/C=C(/C)C(=O)N6)O8)c2)CC1 [Compound 11d, (7S,9E,11S,12R,13S,14R,15R,16R,17S,1S,19E,21Z)-2,15,17-Trihydroxy-11-methoxy-3,7,12,14,16,18,22-heptamethyl-6,23,37-trioxo-32-{(3-[(4-propanoylpiperazin-1-yl)methyl]phenyl}methoxy)-8,27,38-trioxa-24,34-diazahexacyclo[23.11.1.1^4,7.0^5,36.0^26,35.0^28,33]octatriaconta-1(36)2,4,9,19,21,25,28,30,32,34-undecaen-13-yl acetate] | 0.08 | 0.058 µM |  | < 0.1 µM |  |  |  |  |  |
| CO[C@H]1/C=C/O[C@@]2(C)Oc3c(C)c(O)c4c(=O)c(c5oc6cccc(OCc7cccc(CN8CCN(C(=O)CN9CCOCC9)CC8)c7)c6nc-5c4c3C2=O)NC(=O)/C(C)=C\C=C\[C@H](C)[C@H](O)[C@@H](C)[C@@H](O)[C@@H](C)[C@H](OC(C)=O)[C@@H]1C [Compound 11f, (7S,9E,11S,12R,13S,14R,15R,16R,17S,1S,19E,21Z)-2,15,17-Trihydroxy-11-methoxy-3,7,12,14,16,18,22-heptamethyl-32-{[3-({4-[2-(morpholin-4-yl)acetyl]piperazin-1-yl}methyl)phenyl]methoxy}-6,23,37-trioxo-8,27,38-trioxa-24,34-diazahexacyclo[23.11.1.1^4,7.0^5,36.0^26,35.0^28,33]octatriaconta-1(36)2,4,9,19,21,25,28,30,32,34-undecaen-13-yl acetate] | 0.11 | 0.084 µM | 0.39 | 0.37 µM | 15 |  |  |  |  |
| CO[C@H]1/C=C/O[C@@]2(C)Oc3c(C)c(O)c4c(=O)c(c5oc6cccc(OCCCCN7CCN(C(=O)CN8CCOCC8)CC7)c6nc-5c4c3C2=O)NC(=O)/C(C)=C\C=C\[C@H](C)[C@H](O)[C@@H](C)[C@@H](O)[C@@H](C)[C@H](OC(C)=O)[C@@H]1C [Compound 5e, (7S,9E,11S,12R,13S,14R,15R,16R,17S,18S,19E,21Z)-2,15,17-Trihydroxy-11-methoxy-3,7,12,14,16,18,22-heptamethyl-32-(4-{4-[2-(morpholin-4-yl)acetyl]piperazin-1-yl}butoxy)-6,23,37-trioxo-8,27,38-trioxa-24,34-diazahexacyclo[23.11.1.1^4,7.0^5,36.0^26,35.0^28,33]octatriaconta-1(36)2,4,9,19,21,25,28(33)29,31,34-undecaen-13-yl acetate] | 0.09 | 0.04 µM | 0.27 |  | 0.57 |  |  |  | 0.047 µM |
| CO[C@H]1/C=C/O[C@@]2(C)Oc3c(C)c(O)c4c(c3C2=O)C2=NC3(CCN(CC(C)C)CC3)NC2=C(NC(=O)/C(C)=C\C=C\[C@H](C)[C@H](O)[C@@H](C)[C@@H](O)[C@@H](C)[C@H](OC(C)=O)[C@@H]1C)C4=O [RFB, rifabutin, reference compound] | 0.02 | 0.01 µM (≈ 0.00847 µg/mL) | 0.01 | 0.0023 µM (≈ 0.00195 µg/mL) | 0.94 |  |  |  |  |
| CO[C@H]1/C=C/O[C@@]2(C)Oc3c(C)c(O)c4c(=O)c(c5oc6cc(N7CCN(C(=O)c8cccc(-c9ccccn9)c8)CC7)cc(C)c6nc-5c4c3C2=O)NC(=O)/C(C)=C\C=C\[C@H](C)[C@H](O)[C@@H](C)[C@@H](O)[C@@H](C)[C@H](OC(C)=O)[C@@H]1C [Compound 29b, (7S,9E,11S,12R,13S,14R,15R,16R,17S,18S,19E,21Z)-2,15,17-Trihydroxy-11-methoxy-3,7,12,14,16,18,22,32-octamethyl-6,23,37-trioxo-30-(4-[3-(pyridin-2-yl)benzoyl]piperazin-1-yl)-8,27,38-trioxa-24,34-diazahexacyclo-[23.11.1.1^4,7.0^5,36.0^26,35.0^28,33]octatriaconta-1(36)2,4,9,19,21,25,28,30,32,34-undecaen-13-yl acetate] | 0.11 | 0.05 µM | 0.03 | 0.006 µM | 0.7 |  |  |  |  |
| CO[C@H]1/C=C/O[C@@]2(C)Oc3c(C)c(O)c4c(=O)c(c5oc6cc(C)cc(N7CCN(C(=O)c8cccc(-n9ccnc9)c8)CC7)c6nc-5c4c3C2=O)NC(=O)/C(C)=C\C=C\[C@H](C)[C@H](O)[C@@H](C)[C@@H](O)[C@@H](C)[C@H](OC(C)=O)[C@@H]1C [Compound 30f, (7S,9E,11S,12R,13S,14R,15R,16R,17S,18S,19E,21Z)-2,15,17-Trihydroxy-32-{4-[3-(1H-imidazol-1-yl)benzoyl]piperazin-1-yl}-11-methoxy-3,7,12,14,16,18,22,30-octamethyl-6,23,37-trioxo-8,27,38-trioxa-24,34-diazahexacyclo[23.11.1.1^4,7.0^5,36.0^26,35.0^28,33]octatriaconta-1(36)2,4,9,19,21,25,28,30,32,34-undecaen-13-yl acetate] | 0.24 | 0.11 µM | 0.57 | 0.117 µM | 2.7 |  |  |  |  |

— patent US20250188092A1, “RIFAMYCIN ANALOGS” (THE REGENTS OF THE UNIVERSITY OF MICHIGAN, priority 2021, published 2025)
